Molecular target: T1, human farnesyl pyrophosphate synthase (hFPPS) (Homo sapiens, UniProt P14324)
T1 construct: gene FDPS; purified protein, homodimer, subunit 42 kDa
T1 sequence (P14324 1-353 isoform P14324-2): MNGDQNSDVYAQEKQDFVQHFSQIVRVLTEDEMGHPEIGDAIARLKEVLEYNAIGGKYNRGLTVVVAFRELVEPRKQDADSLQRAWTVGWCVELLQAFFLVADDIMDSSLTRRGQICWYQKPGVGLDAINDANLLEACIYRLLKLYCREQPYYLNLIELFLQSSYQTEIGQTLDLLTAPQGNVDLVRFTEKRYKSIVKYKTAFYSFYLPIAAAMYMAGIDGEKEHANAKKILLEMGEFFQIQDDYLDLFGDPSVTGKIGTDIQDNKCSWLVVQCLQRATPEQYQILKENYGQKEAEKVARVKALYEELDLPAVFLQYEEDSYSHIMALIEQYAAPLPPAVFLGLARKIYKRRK
Experiment: ITC, one-site model
Format: binding
Source text: ITC, one-site model on human farnesyl pyrophosphate synthase (hFPPS)

Kd: 120 ± 36 nM
SMILES: O=P(O)(O)C(Nc1cncc(-c2ccc(OC3CC3)cc2)c1)P(=O)(O)O [JDS05120]
